Read-outs that look alike come from different tables or passages of the source.
Columns and labels:
human CB2 receptor [1] = biological target: T1, human CB2 receptor (Homo sapiens (Human), UniProt P34972); test: Membrane [35S]GTPγS binding assay; format: biochemical; conditions: for Emax: read-out: [35S]GTPγS Emax
Method: Human CB2 expressing CHO-K1 membranes (5 μg per incubation mixture) were diluted in 50 mM Tris-HCl (pH 7.5) and 0.5 mM EDTA and added to HU compounds in a pre-mixed incubation cocktail. Final incubation concentrations were 55 mM Tris-HCl (pH 7.4), 1 mM EDTA, 100 mM NaCl, 5 mM MgCl2, 0.5% BSA, 50 μM GDP, 0.2 nM [^35S]GTPγS (PerkinElmer) with varied HU compound concentration and 5 μg membrane. Incubations were continued for 60 minutes at 30° C. in a shaking water bath. Assays were terminated by addition of 2 ml ice cold wash buffer (50 mM Tris-HCl, pH 7.5 and 5 mM MgCl2) and filtration through pre-soaked GF/C filters (Whatman), followed by two further washes. adioactivity was determined as described for competition binding assays.
Data was analyzed using the Prism 4.02 programme (GraphPad Software, San Deigo, Calif., USA). IC50 and EC50 values, as determined from sigmoidal curves, were generated from drug concentrations plotted in log scale. […] It is possible to display data as an average, plus or minus the standard error of the mean in log form, however, this is not easily interpreted or compared to other values. It was therefore elected to calculate the 95% confidence interval for the mean value in log form and then convert the lower limit, mean and upper limit into the molar (linear) scale. […] Two-tailed t-tests for statistical analysis between enantiomeric pairs of compounds were performed for CB2 Ki values. The Pearson value, an indication of linearity, was determined for Ki and IC50 or EC50 results obtained for CB2 receptors in binding, cAMP or GTPγS experiments, respectively.

human CB2 receptor [2] = biological target: T1, human CB2 receptor; test: cell-based
Text: (§1) The cDNA clones for human HA-tagged CB1 and CB2 receptors were obtained from the Missouri S&T cDNA Resource Center (www.cdna.org) in cloning vector pcDNA3.1+. The vector containing the human CB2 receptor was transfected directly into CHO-KI cells obtained from ATCC. The HA-tagged human CB1 receptor sequence was subcloned into the pef4-V5-HisA vector with Kpn1 and Pme1 restriction enzymes and subsequently transfected into CHO-K1 cells. Cells were clonally isolated by limited dilution and screened by immunocytochemistry for expression of the HA tag.
(§2) Cells were maintained in DMEM/F12 media supplemented with 10% fetal bovine serum (FBS), 100 units/ml penicillin and 100 μg/ml streptomycin and 2 mM L-glutamine. Transfected cell lines were maintained with additional 150 ug/ml zeocin for pEF HA-CB1 transfected cells and 500 ug/ml G-418 for pcDNA HA-CB2 transfected cells (all reagents obtained from Invitrogen).
(§3) Cells were seeded at a density of 10,000 cells per well in poly-L-lysine treated 96-well culture plates (BD Biosciences). The following day wells were incubated with 40 μl DMEM/F12 containing 0.5% (w/v) BSA and 0.5 mM 3-isobutyl-1-methylxanthine (Sigma-Aldrich) for 30 minutes prior to 15 min stimulation with 50 μM forskolin (Tocris Cookson) and varying concentrations of indicated compounds at 37° C., 5% CO2. Assays were stopped by removal of media and addition of 100% ice cold ethanol. Plates were then frozen for a minimum of two hours before complete evaporation of ethanol. The well contents were then reconstituted in 50 μl cAMP assay buffer (20 mM HEPES pH 7.5 and 5 mM EDTA). Half of the reconstituted sample was transferred to round bottom 96-well plates (Greiner Bio-One GmbH) with 50 μl 0.01% w/v PKA (cAMP dependent protein kinase (Sigma-Aldrich) in 1 mM Na citrate pH 6.5 with 2 mM dithiothreitol) and 25 μl [^3H]-cAMP (at 22 nM in cAMP assay buffer) (GE Healthcare, Life Sciences). This was allowed to equilibrate for 3-18 hours. Following this a charcoal slurry (5% (w/v) activated charcoal and 0.2% (w/v) BSA in cAMP assay buffer) was added to the samples and the plates centrifuged at 3000×g, 4° C. for 5 min. Radioactive counts within the supernatant were then determined as described for competition binding assays.
(§4) pIC50 values were determined from cAMP assays by fitting a sigmoidal concentration response curve using Prism 4.02.

human CB1 receptor [3] = biological target: T2, human CB1 receptor (Homo sapiens (Human), UniProt P21554); test: cell-based; conditions: whole cells expressing CB1, 50 μM forskolin; read-out: cAMP Assay CB1 Receptor IC50
T2 sequence (P21554 whole entry): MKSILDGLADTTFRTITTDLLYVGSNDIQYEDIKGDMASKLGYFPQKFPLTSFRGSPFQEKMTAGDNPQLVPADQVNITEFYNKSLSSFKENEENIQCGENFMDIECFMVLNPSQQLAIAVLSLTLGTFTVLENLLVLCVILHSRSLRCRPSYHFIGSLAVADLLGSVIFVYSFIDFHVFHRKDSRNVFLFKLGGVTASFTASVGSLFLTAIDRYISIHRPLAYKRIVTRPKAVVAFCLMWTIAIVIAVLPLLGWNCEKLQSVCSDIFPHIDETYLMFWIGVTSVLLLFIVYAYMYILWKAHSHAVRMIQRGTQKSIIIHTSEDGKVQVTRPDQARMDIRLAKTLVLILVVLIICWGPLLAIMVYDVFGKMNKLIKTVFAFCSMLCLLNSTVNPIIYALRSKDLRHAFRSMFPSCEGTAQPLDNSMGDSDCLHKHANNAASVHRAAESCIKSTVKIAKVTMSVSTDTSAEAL
Text: as §1, §2, §3, §4

human CB1 receptor [4] = biological target: T2, human CB1 receptor; test: Membrane competition binding assay with [3H]-CP 55,940, CHO-CB1 membranes; conditions: CHO-CB1 cellular membranes, 2.5 nM [3H]-CP 55,940; read-out: Competition Binding Assay CB1 Receptor Ki
Text: as §1, §2
(§5) Cells were grown to confluence and harvested in ice cold phosphate buffered saline with 5 mM EDTA. Cells were spun at 200×g for 10 min and frozen at −80° C. until required. Cell pellets were thawed with cold 0.32 M sucrose and homogenised with a glass homogeniser. The homogenate was spun at 1000×g for 10 min at 4° C. and the supernatant spun in a Sorvall ultracentrifuge for 30 min at 100,000×g. The pellet was then washed in ice cold water and re-spun twice more. The final pellet was resuspended in 50 mM Tris pH 7.5, 0.5 mM EDTA. Protein concentration was determined using the Dc protein assay kit (BioRad, Hercules, Calif., USA).
(§6) Membranes (5-10 μg) were incubated with radioligand and a range of concentrations of test compounds in binding buffer (50 mM Tris pH 7.4, 5 mM MgCl2, 1 mM EDTA) with 0.5% (w/v) bovine serum albumin (BSA) (ICP Bio, New Zealand), at 30° C. for 60 min. Stock solutions of putative cannabinoid ligands were prepared in dimethyl sulfoxide to a concentration of 10 mM. Six different final concentrations of compounds were used ranging from 50 μM to 0.1 nM. […] Assays were terminated by addition of 2 ml ice cold binding buffer and filtration through GF/C filters (Whatman) pre-soaked in cold binding buffer, followed by two washes in the same buffer.
(§7) Radioactivity was determined by incubation of filters with Irgasafe scintillation fluid (PerkinElmer) and scintillation counting in a Wallac Trilux using Microbeta Trilux software. Data was analysed using the Prism 4.02 programme (GraphPad Software, San Deigo, Calif., USA).
(§8) All data was analyzed using Prism 4.02. For binding data the Ki was determined from IC50 values derived from competition binding data fitted with one site competition non-linear regression analysis by Prism 4.02 using the Kd values reported above.

human CB2 receptor [5] = biological target: T1, human CB2 receptor; test: Membrane competition binding assay with [3H]-CP 55,940, CHO-CB2 membranes
Text: as §1, §2, §5, §6, §7, §8

closed head injury (CHI) = test: Closed head injury (CHI) model, neurological severity score, Sabra mice; format: in vivo; conditions: SR144528 1 mg/kg i.p. 1 h after CHI, 24 h to 14 day, vs vehicle control
Method: The study was conducted according to the guidelines of the Institutional Animal Care Committee of the Hebrew University. Male Sabra mice weighing 35 to 50 g were used in all experiments. Animals were kept under controlled light conditions with a 12 h/12 h light/dark cycle. Experimental closed head injury (CHI) was induced using a modified weight drop device developed in our laboratory as described previously (Chen et al., 1996). At 1 h after CHI, the functional status of the mice was evaluated according to a set of 10 neurobehavioral tasks, namely the neurological severity score (NSS). This score is based on the ability of the mice to perform 10 different tasks (Beni-Adani et al., 2001) that evaluate their motor ability, balance, and alertness. One point is given for failing to perform a task. […] A score of 10 reflects maximal neurologic impairment, and a decrease of NSS during the recovery period indicates partial recovery of function.
Data was analyzed using the Prism 4.02 programme (GraphPad Software, San Deigo, Calif., USA). The data are expressed as mean±SEM and statistical significance was assessed with one way analysis of variance (ANOVA) followed by a Dunnett's post-hoc analysis for TNF-α levels. Nonparametric NSS values were compared between the two groups at each time point.
In this study four groups of mice were subjected to CHI (n=10/group and control n=9), after which the following agents were administered: • Group 1 (Control): Vehicle only (ethanol:cremophor:saline at ratio of 1:1:18), 1 h after CHI. • Group 2: HU-910, 0.1 mg/kg, dissolved in vehicle (1:1:18 ethanol:cremophor:saline), i.p. 1 h after CHI. • Group 3: HU-910, 1.0 mg/kg, dissolved in vehicle (1:1:18 ethanol:cremophor:saline), i.p. 1 h after CHI. • Group 4: HU-910, 10.0 mg/kg, dissolved in vehicle (1:1:18 ethanol:cremophor:saline), i.p. 1 h after CHI.
In this study four groups of mice were subjected to CHI (n=9/group), after which the following agents were administered: • Group 1 (Control): Vehicle only (ethanol:cremophor:saline at ratio of 1:1:18), 1 h after CHI. • Group 2: HU-910, 10 mg/kg, dissolved in vehicle (1:1:18 ethanol:cremophor:saline), i.p. 1 h after CHI. • Group 3: Specific CB2 antagonist SR144528 (N-[(1S)-endo-1,3,3-trimethylbicyclo[2.2.1]heptan-2-yl]-5-(4-chloro-3-methylphenyl)-1-(4-methylbenzyl)pyrazole-3 carboxamide), (see M. Rinaldi-Carmona, et al. J. Pharmacol. Exp. Ther. 284 (1998) 644-650), 1 mg/kg, i.p. 1 h after CHI. • Group 4: Specific CB2 antagonist (SR144528, N-[(1S)-endo-1,3,3-trimethylbicyclo[2.2.1]heptan-2-yl]-5-(4-chloro-3-methylphenyl)-1-(4-methylbenzy)pyrazole-3 carboxamide), 1 mg/kg, i.p. 1 h after CHI and HU-910 10 mg/kg administered 10 min after administration of antagonist.
In this study four groups of mice were subjected to CHI (n=7-8/group), after which the following agents were administered: • Group 1 (Control): Vehicle only (Dimethyl Sulfoxide (DMSO): Tween 80: Saline at ratio of 1:1:18), i.p. 1 h after CHI. • Group 2: HU-910, 10 mg/kg, dissolved in Vehicle, i.p. 1 h after CHI. • Group 3: Specific CB2 antagonist/inverse agonist AM630 (6-Iodo-2-methyl-1-[2-(4-morpholinyl)ethyl]-1H-indol-3-yl](4-methoxyphenyl)methanone) (Ross et al. 1999)), dissolved in Vehicle, 1 mg/kg, i.p. 1 h after CHI and HU-910, dissolved in Vehicle, 10 mg/kg administered 10 min after administration of antagonist/inverse agonist. • Group 4: Specific CB2 antagonist/inverse agonist AM630 (6-Iodo-2-methyl-1-[2-(4-morpholinyl)ethyl]-1H-indol-3-yl](4-methoxyphenyl)methanone), dissolved in Vehicle, 1 mg/kg, i.p. 1 h after CHI

[6] = CHO, read-out: cAMP Assay CB2 Receptor Emax
[7] = read-out: cAMP Assay CB2 Receptor IC50
[8] = human CB2 CHO-K1 membranes, mean (95% confidence interval), n = 5
[9] = CHO; read-out: cAMP Assay CB2 Receptor Emax
[10] = whole cells expressing CB2, 50 μM forskolin; read-out: cAMP Assay CB2 Receptor IC50
[11] = CHO-CB2 cellular membranes, 2.5 nM [3H]-CP 55,940

Compound: CCCCCCC(C)(C)c1cc(OC)c(C2=C[C@@H]3CC[C@@]2(CO)C3(C)C)c(OC)c1 [HU-909, (1R,4S)-(2-(2,6-dimethoxy-4-(2-methyloctan-2-yl)phenyl)-7,7-dimethylbicyclo[2.2.1]hept-2-en-1-yl)methanol]
- EC50 (human CB2 receptor [1]): 136 nM
- Emax (human CB2 receptor [1]): 76 ± 7%
- Emax (human CB2 receptor [2]; [6]): 95 ± 6%
- IC50 (human CB2 receptor [2]; [7]): 425 nM
- IC50 (human CB1 receptor [3]): > 50000 nM
- Ki (human CB1 receptor [4]): 11700 nM
- Ki (human CB2 receptor [5]): 56.8 nM

Compound: CCCCCCC(C)(C)c1cc(OC)c(C2=C[C@@H]3CC[C@@]2(C(=O)OC)C3(C)C)c(OC)c1 [HU-911, (1R,4S)-methyl-2-(2,6-dimethoxy-4-(2-methyloctan-2-yl)phenyl)-7,7-dimethylbicyclo[2.2.1]hept-2-ene-1-carboxylate]
- EC50 (human CB2 receptor [1]; [8]): 126 nM
- Emax (human CB2 receptor [1]): 94 ± 4%
- Emax (human CB2 receptor [2]; [9]): 86 ± 9%
- IC50 (human CB2 receptor [2]; [10]): 385 nM
- IC50 (human CB1 receptor [3]): > 50000 nM
- Ki (human CB1 receptor [4]): > 50000 nM
- Ki (human CB2 receptor [5]; [11]): 84.6 nM

Compound: CCCCCCC(C)(C)c1cc(OC)c(C2=C[C@@H]3CC[C@@]2(C(=O)O)C3(C)C)c(OC)c1 [HU-913, (1R,4S)-2-(2,6-dimethoxy-4-(2-methyloctan-2-yl)phenyl)-7,7-dimethylbicyclo[2.2.1]hept-2-ene-1-carboxylic acid]
- EC50 (human CB2 receptor [1]): 344 nM
- Emax (human CB2 receptor [1]): 98 ± 3%
- Emax (human CB2 receptor [2]; [6]): 101 ± 11%
- IC50 (human CB2 receptor [2]; [7]): 330 nM
- IC50 (human CB1 receptor [3]): > 50000 nM
- Ki (human CB1 receptor [4]): > 50000 nM
- Ki (human CB2 receptor [5]): 81.5 nM

Compound: CCCCCCC(C)(C)c1cc(OC)c(C2C(=O)[C@]3(C)CC[C@H]2C3(C)C)c(OC)c1 (stereo partly drawn) [HU-926, (1R,4R)-3-(2,6-dimethoxy-4-(2-methyloctan-2-yl)phenyl)-1,7,7-trimethylbicyclo[2.2.1]heptan-2-one]
- EC50 (human CB2 receptor [1]; [8]): 185 nM
- Emax (human CB2 receptor [1]): 51 ± 6%
- Emax (human CB2 receptor [2]; [9]): 100 ± 13%
- IC50 (human CB2 receptor [2]; [10]): 321 nM
- IC50 (human CB1 receptor [3]): > 50000 nM
- Ki (human CB1 receptor [4]): > 50000 nM
- Ki (human CB2 receptor [5]; [11]): 106 nM

Compound: CCCCCCC(C)(C)c1cc(OC)c(C2C(O)[C@]3(C)CC[C@H]2C3(C)C)c(OC)c1 (stereo partly drawn) [HU-928, (1R,4R)-3-(2,6-dimethoxy-4-(2-methyloctan-2-yl)phenyl)-1,7,7-trimethylbicyclo[2.2.1]heptan-2-ol]
- EC50 (human CB2 receptor [1]): 577 nM
- Emax (human CB2 receptor [1]): 95 ± 5%
- Emax (human CB2 receptor [2]; [6]): 101 ± 11%
- IC50 (human CB2 receptor [2]; [7]): 925 nM
- IC50 (human CB1 receptor [3]): > 50000 nM
- Ki (human CB1 receptor [4]): > 50000 nM
- Ki (human CB2 receptor [5]): 230 nM

Compound: N-[(1S)-endo-1,3,3-trimethylbicyclo[2.2.1]heptan-2-yl]-5-(4-chloro-3-methylphenyl)-1-(4-methylbenzyl)pyrazole-3 carboxamide [SR144528, reference compound]
- extent of recovery ΔNSS, antagonist alone (closed head injury (CHI)): recovery was significantly reduced
